The values below come from patent US9174994B2, “Enhanced treatment regimens using mTor inhibitors” (INTELLIKINE LLC, priority 2011, dated 2015).

The structures appear in SMILES notation.

Series [1] can be described thus: Phase I clinical trial: plasma pharmacokinetics. Format: in vivo, human. The procedure:
(§1) Adult patients with histologically confirmed advanced solid tumors were enrolled in a 3+3 dose escalation Phase I study evaluating 3 intermittent schedules of administration for compound A: QW (once weekly), QD×3d QW (3 days on 4 days off), and QD×5d QW (5 days on 2 days off), in comparison with daily dosing (QD). Safety, maximum tolerated dose (MTD), pharmacokinetics (PK) and preliminary antitumor activity were evaluated.

Series [2] concerns p4E-BP1 (T37/46). Put plainly: Human peripheral blood mono-nucleocyte biomarker assay (Phosflow, Phase I trial). Format: in vivo. The following applies: all dosing regimens. The procedure: A BD Biosciences Phosflow assay was conducted using human peripheral blood cells. Whole blood was lysed and fixed using the provided BD Lyse/Fix buffer and permeabilized with BD Perm III buffer. Peripheral blood cells were isolated and stained using CD33 and CD20 as extracellular markers and p4E-BP1 (T37/46) as the intracellular biomarker. Cell type populations were identified as monocytes (CD33+), granulocytes (CD33 dim), lymphocytes (CD33−), B-cells (CD33−, CD20+) and T &NK cells (CD33−, CD20−) by FACS analysis. The median fluorescense intensity (MFI) of each cell type was analyzed along with the percentage of p4E-BP1 positive cells.
Pharmacodynamic (PD) endpoints were evaluated in surrogate (peripheral blood cells [PBCs], skin) and tumor tissues for the phosphorylation of TORC1-dependent markers (4EBP1/S6), and TORC2-dependent markers (AKT/PRAS40). 50 patients were treated in 3 intermittent dosing regimens; 21 in 6 cohorts ranging 7-40 mg QW, 20 in 5 cohorts ranging 6-20 mg QDx3d QW, and 9 in 3 cohorts ranging 7-13 mg QDxSd QW. […] The MTD for intermittent dosing was not reached. All adverse events (AEs) reported were reversible. The most common (≧20%, n=35) AEs considered possibly related to compound A reported in all 3 dosing regimens included nausea (51%), hyperglycemia (37%), mucosal inflammation (29%), rash (23%), asthenia (23%), vomiting (26%), and diarrhea (20%). […]

Series [3] relates to advanced solid tumors. Put plainly: Phase I clinical trial: preliminary antitumor activity. The series is classed as in vivo, human. The following applies: patients with lung and renal cancer. Here is the method:
as §1

Take `CC(C)n1nc(-c2ccc3oc(N)nc3c2)c2c(N)ncnc21` [compound A]: the “Time per week (hrs) above 100 nM plasma conc.” value is 20 h in series [1] (6 mg QD); 25 h in series [1] (10 mg Q5D); 30 h in series [1] (13 mg Q5D); 30 h in series [1] (16 mg Q3D); 35 h in series [1] (20 mg Q3D); 15 h in series [1] (30 mg QW). In addition, the “Time per week (hrs) above 100 nM plasma conc.” value in series [1] (40 mg QW) came to 20 h. The “Plasma exposures (Cmax and AUC0-24): dose dependence” value in series [1] (following oral doses) is on record as “dose-linear plasma PK”. The “p4EBP1 levels in PBC” value in series [2] is “Decreases in p4EBP1 levels were seen”. Moreover, the Preliminary anti-tumor activity result in series [3] is on record as “Preliminary anti-tumor activity was seen”.
